The structures appear in SMILES notation.

The text below walks through data of ChEMBL document CHEMBL4190379 (Bioorg Med Chem Lett, 2018).

The subject of series [1] is OPM-2. The experiment in a line: Antitumor activity against human OPM2 cells xenografted in SCID-beige mouse assessed as inhibition of tumor growth at 0.62 mg/kg, po qd administered for 28 days starting from 18 days post tumor inoculation. The following applies: OPM-2, po, read-out: TGI. The class given is functional.
In series [2] the test system is Mus musculus. The experiment in a line: Toxicity in human OPM2 cells xenografted SCID-beige mouse assessed as body weight loss at 0.31 mg/kg, po qd administered for 28 days starting from 18 days post tumor inoculation. The class given is organism-based. The settings on record: in vivo.
The test system of series [3] is OPM-2. Nature of the series: Antitumor activity against human OPM2 cells xenografted in SCID-beige mouse assessed as inhibition of tumor growth administered once daily orally for 28 days starting from 18 days post tumor inoculation. The class given is functional, cell-based.
In series [4] the target is T1, ATPase family AAA domain-containing protein 2 (Homo sapiens) (UniProt Q6PL18).
T1 sequence (whole entry): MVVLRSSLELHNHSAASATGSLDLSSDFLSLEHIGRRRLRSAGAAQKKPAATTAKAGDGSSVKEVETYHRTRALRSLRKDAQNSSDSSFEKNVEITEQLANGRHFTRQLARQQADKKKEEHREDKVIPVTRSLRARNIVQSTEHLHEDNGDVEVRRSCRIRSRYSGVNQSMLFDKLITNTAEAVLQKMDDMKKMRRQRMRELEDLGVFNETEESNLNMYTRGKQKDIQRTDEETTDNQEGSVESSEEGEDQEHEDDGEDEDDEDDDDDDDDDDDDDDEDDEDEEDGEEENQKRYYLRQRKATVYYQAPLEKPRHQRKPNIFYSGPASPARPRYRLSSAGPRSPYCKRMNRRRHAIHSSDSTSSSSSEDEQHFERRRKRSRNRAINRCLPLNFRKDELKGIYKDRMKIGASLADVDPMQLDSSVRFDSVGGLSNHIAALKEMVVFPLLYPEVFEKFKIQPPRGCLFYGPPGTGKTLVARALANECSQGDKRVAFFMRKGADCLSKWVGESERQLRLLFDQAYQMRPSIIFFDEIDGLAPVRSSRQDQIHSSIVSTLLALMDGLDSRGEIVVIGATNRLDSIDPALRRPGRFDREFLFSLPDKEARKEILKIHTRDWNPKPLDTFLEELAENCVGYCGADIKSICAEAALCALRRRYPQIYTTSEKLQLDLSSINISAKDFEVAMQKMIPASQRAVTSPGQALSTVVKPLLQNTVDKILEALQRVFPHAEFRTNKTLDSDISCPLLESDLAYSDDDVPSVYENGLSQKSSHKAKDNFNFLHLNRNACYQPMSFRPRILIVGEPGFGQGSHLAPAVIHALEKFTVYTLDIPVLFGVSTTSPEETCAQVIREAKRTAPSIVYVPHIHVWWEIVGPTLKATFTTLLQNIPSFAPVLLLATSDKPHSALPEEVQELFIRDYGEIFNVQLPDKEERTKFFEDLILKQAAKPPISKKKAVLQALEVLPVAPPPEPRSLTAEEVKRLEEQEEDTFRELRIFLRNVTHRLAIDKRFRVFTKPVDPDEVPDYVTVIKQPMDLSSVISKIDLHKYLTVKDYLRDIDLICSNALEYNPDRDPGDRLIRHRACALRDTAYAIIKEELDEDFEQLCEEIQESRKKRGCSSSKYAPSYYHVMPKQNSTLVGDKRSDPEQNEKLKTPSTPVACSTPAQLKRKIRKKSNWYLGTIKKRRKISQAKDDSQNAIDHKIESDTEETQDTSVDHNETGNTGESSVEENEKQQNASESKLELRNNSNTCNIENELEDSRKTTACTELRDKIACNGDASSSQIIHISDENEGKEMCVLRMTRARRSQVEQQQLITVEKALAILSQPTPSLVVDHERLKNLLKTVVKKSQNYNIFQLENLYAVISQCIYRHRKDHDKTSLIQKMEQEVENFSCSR
Nature of the series: Binding affinity to human ATAD2A expressed in bacterial system assessed as remaining binding level at 1 uM by BROMOscan assay relative to control.

Series [5] can be described thus: Permeability of the compound by PAMPA method. The settings on record: read-out: permeability. The class given is ADME.
The test system of series [6] is Mus musculus. The experiment in a line: Toxicity in human OPM2 cells xenografted SCID-beige mouse assessed as body weight loss at 0.62 mg/kg, po qd administered for 28 days starting from 18 days post tumor inoculation. The class given is organism-based. The settings on record: in vivo.
Series [7] is described as follows: Oral bioavailability in mouse at 10 mg/kg. The settings on record: in vivo. The class given is ADME, organism-based.
The test system of series [8] is OPM-2. The experiment in a line: Antitumor activity against human OPM2 cells xenografted in SCID-beige mouse assessed as inhibition of tumor growth at 0.31 mg/kg, po qd administered for 28 days starting from 18 days post tumor inoculation. The settings on record: OPM-2, po, read-out: TGI. The class given is functional.
In series [9] the test system is Mus musculus. The experiment in a line: Toxicity in human OPM2 cells xenografted SCID-beige mouse assessed as morbidity at 0.31 mg/kg, po qd administered for 28 days starting from 18 days post tumor inoculation. The class given is organism-based. The following applies: in vivo.
Series [10] has as its system Mus musculus. The experiment in a line: Dose normalized AUC in mouse at 1 mg/kg, po. The class given is ADME, organism-based. The settings on record: in vivo.
Series [11] is described as follows: Intrinsic unbound clearance in mouse liver microsomes. The class given is ADME, microsome.
Series [12] has as its system OPM-2. The experiment in a line: Antitumor activity against human OPM2 cells xenografted in SCID-beige mouse assessed as inhibition of tumor growth at 7.5 mg/kg, po qd administered for 28 days starting from 18 days post tumor inoculation. The class given is functional. The settings on record: OPM-2, po, read-out: TGI.
For series [13], the system named is Mus musculus. Nature of the series: Toxicity in human OPM2 cells xenografted SCID-beige mouse assessed as body weight loss at 7.5 mg/kg, po qd administered for 28 days starting from 18 days post tumor inoculation. The settings on record: in vivo. The class given is organism-based.
Series [14] relates to OPM-2. Nature of the series: Antitumor activity against human OPM2 cells xenografted in SCID-beige mouse assessed as inhibition of tumor growth at 3.75 mg/kg, po qd administered for 28 days starting from 18 days post tumor inoculation. The class given is functional. The following applies: OPM-2, po, read-out: TGI.
Series [15] is described as follows: AUC in mouse at 10 mg/kg, po. The class given is ADME, organism-based. The settings on record: in vivo.
The subject of series [16] is Mus musculus. The experiment in a line: Toxicity in human OPM2 cells xenografted SCID-beige mouse assessed as body weight loss at 3.75 mg/kg, po qd administered for 28 days starting from 18 days post tumor inoculation. The following applies: in vivo. The class given is organism-based.

For `Cn1cc2c3c(c[nH]c3c1=O)CN(c1ccccn1)c1ccc(CS(C)(=O)=O)cc1-2`, in [1], the inhibition in vivo at 0.62 mg/kg stood at 94%. The Activity in series [2] was 0%; in series [4], 68%; in series [6], 5%; in series [9] it was “Non-Toxic”. The TGI entry in [3] is “Dose-dependent effect”. In addition, the Papp in series [5] was 6 ×10⁻⁶ cm/s. The same compound registered a bioavailability in series [7] of 32%. The inhibition in vivo at 0.31 mg/kg in [8] is 60%. For the same compound, the AUC/dose in [10] is 3.5 µM·h. The same compound had a CL free in series [11] of 233 mL/min/kg.

Consider `Cn1cc2c3c(c[nH]c(=O)c31)-c1cc(CS(C)(=O)=O)ccc1N(c1ccc(F)cc1)C2`, for which, in series [3], the TGI result was “Dose-dependent effect”. Further, the Activity amounted to 100% in [4], 9% in series [13] and 10% in [16]. In addition, the Papp in series [5] came to 5.1 ×10⁻⁶ cm/s. In series [7], this compound came in with a bioavailability of 34%. For the same compound, in series [12], the inhibition in vivo at 7.5 mg/kg worked out at 84%. The inhibition in vivo at 3.75 mg/kg in series [14] came to 68%. Besides, in series [15], the AUC worked out at 2.8 µM·h. In addition, in series [11], the CL free was found to be 317 mL/min/kg.

For the compound `Cn1cc2c3c(c[nH]c3c1=O)CN(c1ccc(F)cc1F)c1ccc(CS(C)(=O)=O)cc1-2`, the Activity in series [4] turned out to be 4.6%. Further, the Papp in series [5] is 13 ×10⁻⁶ cm/s. In [7], this compound displayed a bioavailability of 93%. The compound further had an AUC in [15] of 12 µM·h. The compound also yielded a CL free in series [11] of 533 mL/min/kg.
